According to article PMC10610214 (Pharmaceuticals, 2023):

Columns and labels:
[1] = molecular target: T1, BuChE (Equus caballus, UniProt P81908); test: Kinetic study of BuChE inhibition (Lineweaver–Burk); format: biochemical
T1 construct: BuChE (from equine serum); purchased Sigma Chemical Company (St. Louis, MO, USA); host or cells: equine serum
Procedure: The specific steps are similar to those described in Section 4.3 for the enzyme inhibition assay. In brief, 100 μL of different concentrations of 4h (0, 0.075, 0.15, and 0.3 μM)/4h (0, 3, 6, and 12 μM) and 100 μL of different concentrations of AChE/BuChE (1, 0.5, 0.25, 0.125, and 0.0625 U/mL) were added into 48-well plates and then co-incubated at 37 °C for 30 min. After the end of incubation, 100 μL of ATCI/BTCI (0.35 mM), 100 μL of PB solution, and 100 μL DTNB (0.35 mM) were added, and then changes in absorbance were measured at different times at 412 nm by multifunctional microplate reader, and the catalytic reaction rate of AChE/BuChE was determined. All concentrations are final. With the enzyme reaction rate V as the ordinate and AChE/BuChE concentration as the abscissa, the curve was drawn to determine the reversibility of the compound to AChE/BuChE.
In order to determination of inhibition types and the constant of AChE/BuChE, the concentration of AChE/BuChE (0.5 U/mL) in the reaction system was fixed. Five different substrate concentrations and four different concentrations of test compound 4h were used to measure the absorbance changes at different times at 412 nm. The reciprocal of the enzymatic reaction rate (1/V) was taken as the ordinate, and the reciprocal of the substrate ATCI/BTCI concentration (1/S) was taken as the abscissa.
[…]. […]

[2] = system: H2O2-induced PC12 cells; test: Neuroprotection against H2O2-induced PC12 cell injury (MTT); format: cell-based; conditions: H2O2 250 μM, mean ± SEM
Procedure: Neuroprotection assay is similar to cytotoxicity. Oxidative cellular damage caused by H2O2 has become one of the important methods to study oxidative damage in neural cells. PC12 cells were seeded into a 96-well plate at a density of 5.0 × 10^3 cells per well. After the cells were incubated overnight, the old medium was discarded. […] After incubating overnight, 20 μL of MTT solution (5 mg/mL, Sigma-Aldrich) was added per well, and the cells were incubated for an additional 4 h. Afterwards, the supernatant was removed and 150 μL of DMSO was added. The 96-well plate was placed on the shaker for 10–15 min, and then the absorbance at 492 nm was measured by a microplate reader.

[3] = LD50 determination in mice (Bliss method); format: in vivo, C57BL mice; conditions: male, C57BL, mouse, in vivo, po, intragastric administration 7 days, Bliss method, read-out: LD50 (95% confidence limit)
Procedure: (§1) Male C57BL mice (18–23 g; 8 weeks old) were purchased from the Experimental Center of Anhui University of Traditional Chinese Medicine. Mice were reared in a temperature and humidity controlled environment with free access to food and water, with self-adaptive rearing for 4 days.
(§2) Thirty mice were randomly divided into five groups, and the death of each group was counted after 7 days of intragastric administration (100, 80, 64, 51.2, 40.96 mg/kg). The Bliss method was used to calculate the LD50 and 95% confidence limit.

[4] = system: mice; test: LD50 determination in mice (Bliss method); format: in vivo, C57BL mice; conditions: intragastric 7 days
Procedure: as §1, §2

[5] = molecular target: T2, AChE (from electric eel) (Electrophorus electricus, UniProt O42275); test: biochemical
T2 construct: AChE (from electric eel); purchased Sigma Chemical Company (St. Louis, MO, USA)
Procedure: (§3) The ChE inhibitory activity of the test compounds was determined using the modified Ellman’s method. The compounds were dissolved in DMSO (10 mmol/L) and then diluted with PB (phosphate buffer) solution to attain a range of final concentrations. […] Briefly, 100 μL of different concentrations of the test or standard compounds and 100 μL of AChE/BuChE (0.5 U/mL) were added into 48-well plates and then co-incubated at 37 °C for 30 min. […] All concentrations mentioned are final.

[6] = molecular target: T3, BuChE (from equine serum) (Equus caballus, UniProt P81908); test: biochemical; conditions: mean ± SD of three experiments, read-out: BuChE Inhibition (IC50)
T3 construct: BuChE (from equine serum); purchased Sigma Chemical Company (St. Louis, MO, USA); host or cells: equine serum
Procedure: as §3

[7] = system: scopolamine-induced AD mice; test: Morris water maze, scopolamine-induced AD mouse model; format: in vivo
Procedure: Mice were reared in a temperature and humidity controlled environment with free access to food and water, with self-adaptive rearing for 4 days.
According to behavioral experiments, 30 mice were randomly divided into 5 groups. […] On day 7, scopolamine hydrobromide was injected intraperitoneally into the of the mouse to establish an AD model. The control group were only injected normal saline. After 30 min, the bodyweight changes in mice during the administration period were recorded.
The MWM is a white circular pool (150 cm in diameter, 60 cm in height; no features on the inner surface) with a water height of 46 cm and a white platform (10 cm in diameter) submerged 1 cm below the water surface. White titanium dioxide (0.25 g/L) was added to make the water turbid to make the platform invisible, and the platform was fixed in the third quadrant of the circular pool (four quadrants in total). Training was performed by allowing mice to stay for 15 s after reaching the platform. If the mice successfully found the platform within 60 s, they were allowed to stay on the platform for 15 s; otherwise, they were brought to the platform and stayed for 15 s. The training was performed four times a day for a total of 4 days of training. Except for the control group, animals were intraperitoneally injected with scopolamine 90 min before the test to induce cognitive deficits mimicking. On day 5, a probe trial was conducted with the platform removed. Mice were placed in the quadrant opposite the target for 60 s, and their swim path was recorded to evaluate memory retention. Performance measures included latency to reach the platform location and time spent in each quadrant.

[8] = Morris water maze probe trial, day 5

T2 sequence (O42275 24-633): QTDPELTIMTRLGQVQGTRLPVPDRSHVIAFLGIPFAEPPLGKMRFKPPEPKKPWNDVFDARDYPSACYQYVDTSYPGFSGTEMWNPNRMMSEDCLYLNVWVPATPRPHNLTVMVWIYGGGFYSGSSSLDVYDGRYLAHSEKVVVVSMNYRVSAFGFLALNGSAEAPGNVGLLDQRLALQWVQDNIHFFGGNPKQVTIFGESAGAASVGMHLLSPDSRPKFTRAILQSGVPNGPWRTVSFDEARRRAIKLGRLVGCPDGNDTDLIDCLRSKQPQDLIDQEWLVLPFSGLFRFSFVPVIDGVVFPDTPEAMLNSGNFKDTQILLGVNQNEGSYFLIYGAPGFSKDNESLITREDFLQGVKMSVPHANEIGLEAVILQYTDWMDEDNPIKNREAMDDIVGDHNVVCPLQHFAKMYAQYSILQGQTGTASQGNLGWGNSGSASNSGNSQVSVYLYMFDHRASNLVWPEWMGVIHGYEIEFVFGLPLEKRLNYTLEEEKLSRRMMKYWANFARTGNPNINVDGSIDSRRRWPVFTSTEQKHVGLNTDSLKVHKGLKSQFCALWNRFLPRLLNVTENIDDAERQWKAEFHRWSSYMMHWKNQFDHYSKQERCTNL
T1 sequence (P81908 whole entry): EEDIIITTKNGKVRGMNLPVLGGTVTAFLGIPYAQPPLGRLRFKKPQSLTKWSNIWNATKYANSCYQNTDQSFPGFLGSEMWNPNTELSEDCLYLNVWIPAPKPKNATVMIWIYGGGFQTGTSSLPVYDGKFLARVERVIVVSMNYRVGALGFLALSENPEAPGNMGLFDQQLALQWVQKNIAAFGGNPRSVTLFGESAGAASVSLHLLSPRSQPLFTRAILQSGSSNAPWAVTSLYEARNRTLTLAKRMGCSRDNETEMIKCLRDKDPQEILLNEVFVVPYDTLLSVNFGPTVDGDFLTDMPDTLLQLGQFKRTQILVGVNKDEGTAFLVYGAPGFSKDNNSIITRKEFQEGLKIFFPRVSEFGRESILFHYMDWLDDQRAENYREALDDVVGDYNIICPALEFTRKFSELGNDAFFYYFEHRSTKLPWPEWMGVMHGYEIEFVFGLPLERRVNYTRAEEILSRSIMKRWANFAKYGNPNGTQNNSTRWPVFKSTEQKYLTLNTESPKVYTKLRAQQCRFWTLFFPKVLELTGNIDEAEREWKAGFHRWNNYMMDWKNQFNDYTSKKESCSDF
T3 sequence (P81908 whole entry): as above

**Q.** With `O=C1c2cc(NS(=O)(=O)c3ccccc3F)ccc2-n2c1nc1ccccc1c2=O` [4h] as the compound, how does the BuChE inhibition type ([1]; Lineweaver–Burk double-reciprocal plot) read?
**A.** mixed-type inhibition

**Q.** What about the Ki ([1]; Lineweaver–Burk secondary plot) of the same compound?
**A.** 5.33 µM

**Q.** What about the “H2O2-Induced PC12 Cell Viability (% of Control)” value ([2]; compound 10 μM) of the same compound?
**A.** 61.66 ± 1.3 % of Control

**Q.** And the “H2O2-Induced PC12 Cell Viability (% of Control)” value ([2]; compound 30 μM)?
**A.** 71.31 ± 1.9 % of Control

**Q.** What about the LD50 at 7 days [3] of the same compound?
**A.** 84.8 mg/kg

**Q.** What about the “Mortality rate (%)” value ([4]; 40.96 mg/kg) of the same compound?
**A.** 0%

**Q.** And the Number of deaths ([4]; 40.96 mg/kg)?
**A.** 0

**Q.** What about the “Mortality rate (%)” value ([4]; 51.2 mg/kg) of the same compound?
**A.** 0%

**Q.** And the Number of deaths ([4]; 51.2 mg/kg)?
**A.** 0

**Q.** What about the “Mortality rate (%)” value ([4]; 64 mg/kg) of the same compound?
**A.** 16.7%

**Q.** And the Number of deaths ([4]; 64 mg/kg)?
**A.** 1

**Q.** What about the “Mortality rate (%)” value ([4]; 80 mg/kg) of the same compound?
**A.** 50%

**Q.** What about the Number of deaths ([4]; 80 mg/kg) of the same compound?
**A.** 3

**Q.** What about the “Mortality rate (%)” value ([4]; 100 mg/kg) of the same compound?
**A.** 66.7%

**Q.** What about the Number of deaths ([4]; 100 mg/kg) of the same compound?
**A.** 4

**Q.** What about the IC50 ([5]; AChE from electric eel, mean ± SD of three experiments, read-out: AChE Inhibition (IC50)) of the same compound?
**A.** 0.13 ± 0.04 µM

**Q.** What about the “Selective Index, IC50 (BChE)/IC50 (AChE)” value ([5]; AChE selectivity index) of the same compound?
**A.** 47

**Q.** What about the IC50 [6] of the same compound?
**A.** 6.11 ± 0.15 µM

**Q.** And the Bodyweight of mice ([7]; 10 and 30 mg/kg, gavage, 7 days)?
**A.** did not cause any abnormal fluctuations in the bodyweight of mice

**Q.** And the “Dwell time in the target quadrant” value [7, 8]?
**A.** markedly higher in the 30 mg/kg dose group than those in the model and 10 mg/kg dose groups

**Q.** What about the “Number of virtual platform crossings” value [7, 8] of the same compound?
**A.** markedly higher in the 30 mg/kg dose group than those in the model and 10 mg/kg dose groups

**Q.** What about the Escape latency ([7]; Morris water maze, 10 and 30 mg/kg gavage, training days) of the same compound?
**A.** decreased in a dose-dependent manner
